Experimental data as given in patent US10266537B2, “3-acetylenyl-pyrazole-pyrimidine derivative, and preparation method therefor and uses thereof” (Si Chuan University, priority 2015, dated 2019).
Like-named read-outs stand apart in the source and are kept apart here.

Tests used:
c-Src(T341M) = c-Src(T341M) (Homo sapiens (Human), UniProt P12931, T341M); test: Kinase inhibition assay (KinaseProfiler, 33P-ATP); type: biochemical; settings: for IC50: c-Src(T341M), ATP at Km
Yes = Yes (Homo sapiens (Human), UniProt P07947); test: Kinase inhibition assay (KinaseProfiler, 33P-ATP); type: biochemical; settings: for remaining activity at 10 µM: Yes(h), read-out: The percentage of the remaining active protein; for IC50: Yes, ATP at Km
FGFR1 = FGFR1 (Homo sapiens (Human), UniProt P11362); test: Kinase inhibition assay (KinaseProfiler, 33P-ATP); type: biochemical; settings: for remaining activity at 10 µM: FGFR1(h), read-out: The percentage of the remaining active protein
ErbB2 = ErbB2 (Homo sapiens (Human), UniProt P04626); test: Kinase inhibition assay (KinaseProfiler, 33P-ATP); type: biochemical; settings: for remaining activity at 10 µM: ErbB2(h), read-out: The percentage of the remaining active protein; for IC50: ErbB2, ATP at Km
DDR1 = DDR1 (Homo sapiens (Human), UniProt Q08345); test: Kinase inhibition assay (KinaseProfiler, 33P-ATP); type: biochemical; settings: for IC50: DDR1, ATP at Km
DDR2 = DDR2 (Homo sapiens (Human), UniProt Q16832); test: Kinase inhibition assay (KinaseProfiler, 33P-ATP); type: biochemical; settings: for IC50: DDR2, ATP at Km
TrkA = TrkA (Homo sapiens (Human), UniProt P04629); test: Kinase inhibition assay (KinaseProfiler, 33P-ATP); type: biochemical; settings: TrkA(h), read-out: The percentage of the remaining active protein
IKKα = IKKα (Homo sapiens (Human), UniProt O15111); test: Kinase inhibition assay (KinaseProfiler, 33P-ATP); type: biochemical; settings: for remaining activity at 10 µM: IKKα(h), read-out: The percentage of the remaining active protein
Axl = Axl (Homo sapiens (Human), UniProt P30530); test: Kinase inhibition assay (KinaseProfiler, 33P-ATP); type: biochemical; settings: for remaining activity at 10 µM: Axl(h), read-out: The percentage of the remaining active protein
EGFR = EGFR (Homo sapiens (Human), UniProt P00533); test: Kinase inhibition assay (KinaseProfiler, 33P-ATP); type: biochemical; settings: for remaining activity at 10 µM: EGFR(h), read-out: The percentage of the remaining active protein
Lyn = Lyn (Homo sapiens (Human), UniProt P07948); test: Kinase inhibition assay (KinaseProfiler, 33P-ATP); type: biochemical; settings: for remaining activity at 10 µM: Lyn(h), read-out: The percentage of the remaining active protein
ALK(h) = ALK(h) (Homo sapiens (Human), UniProt Q9UM73); test: Kinase inhibition assay (KinaseProfiler, 33P-ATP); type: biochemical; settings: read-out: The percentage of the remaining active protein
ARK5(h) = ARK5(h) (Homo sapiens (Human), UniProt O60285); test: Kinase inhibition assay (KinaseProfiler, 33P-ATP); type: biochemical; settings: read-out: The percentage of the remaining active protein
EphA8(h) = EphA8(h) (Homo sapiens (Human), UniProt P29322); test: Kinase inhibition assay (KinaseProfiler, 33P-ATP); type: biochemical; settings: read-out: The percentage of the remaining active protein
Fer(h) = Fer(h) (Homo sapiens (Human), UniProt P16591); test: Kinase inhibition assay (KinaseProfiler, 33P-ATP); type: biochemical; settings: read-out: The percentage of the remaining active protein
Met(h) = Met(h) (Homo sapiens (Human), UniProt P08581); test: Kinase inhibition assay (KinaseProfiler, 33P-ATP); type: biochemical; settings: read-out: The percentage of the remaining active protein
Pim-1(h) = Pim-1(h) (Homo sapiens (Human), UniProt P11309); test: Kinase inhibition assay (KinaseProfiler, 33P-ATP); type: biochemical; settings: read-out: The percentage of the remaining active protein
PKA(h) = PKA(h) (Homo sapiens (Human), UniProt P17612); test: Kinase inhibition assay (KinaseProfiler, 33P-ATP); type: biochemical; settings: read-out: The percentage of the remaining active protein
TBK1(h) = TBK1(h) (Homo sapiens (Human), UniProt Q9UHD2); test: Kinase inhibition assay (KinaseProfiler, 33P-ATP); type: biochemical; settings: read-out: The percentage of the remaining active protein
MV4-11 = test: Cell proliferation inhibition assay (MTT); type: cell-based; settings: Homo sapiens, read-out: Proliferation inhibitory activity IC50
Method: (§1) The cells were seeded in 96-well plates with 200 μL of cell suspension per well and incubated overnight in a cell culture medium with a cell concentration of 1 2×10^4 cells/mL. The next day, the supernatant was discarded (the suspension cell was centrifuged before it) and the cells were treated with gradient concentrations of the test compound, respectively. […] After 72 hours, add 20 μL of MTT reagent at a concentration of 5 mg/mL per well. After incubation for 2-4 h, the supernatant was discarded and 150 μL of DMSO was added to each well. […] Relative cell proliferation inhibition rate=([MUT]-[MUT])×100%/[MUT]. The experiment was repeated at least 3 times. Experimental data were expressed as mean, data statistics using t test, P<0.05 for the difference was statistically significant.

Miapaca-2 = test: Cell proliferation inhibition assay (MTT); type: cell-based; settings: Homo sapiens, read-out: Proliferation inhibitory activity IC50
Method: as §1

CFPAC = test: Cell proliferation inhibition assay (MTT); type: cell-based; settings: Homo sapiens, read-out: Proliferation inhibitory activity IC50
Method: as §1

A549 = test: Cell proliferation inhibition assay (MTT); type: cell-based; settings: Homo sapiens, read-out: Proliferation inhibitory activity IC50
Method: as §1

HCT116 = test: Cell proliferation inhibition assay (MTT); type: cell-based; settings: Homo sapiens, read-out: Proliferation inhibitory activity IC50
Method: as §1

A375 = test: Cell proliferation inhibition assay (MTT); type: cell-based; settings: Homo sapiens, read-out: Proliferation inhibitory activity IC50
Method: as §1

[1] = test system: breast cancer cell line MDA-MB-231; type: in vivo
Method: When the tumors grew to volumes of 200 mm^3, all the mice were randomized into groups (6 mice for each group) and dosed with indicated compounds.
Observation indexes: mouse body weight and the tumor size were measured once every three days, the tumor volume is calculated (length×width^2×0.5).

c-Src(1-530) = c-Src(1-530) (Homo sapiens (Human), UniProt P12931); test: Kinase inhibition assay (KinaseProfiler, 33P-ATP); settings: for IC50: c-Src(1-530), ATP at Km; for remaining activity at 10 µM: read-out: The percentage of the remaining active protein
EphA2 = EphA2 (Homo sapiens (Human), UniProt P29317); test: Kinase inhibition assay (KinaseProfiler, 33P-ATP)
TAK1 = TAK1 (Homo sapiens (Human), UniProt O43318); test: Kinase inhibition assay (KinaseProfiler, 33P-ATP); type: biochemical; settings: for remaining activity at 10 µM: TAK1(h), read-out: The percentage of the remaining active protein
JAK3(h) = JAK3(h) (Homo sapiens (Human), UniProt P52333); test: Kinase inhibition assay (KinaseProfiler, 33P-ATP); type: biochemical; settings: read-out: The percentage of the remaining active protein
MAPK1(h) = test: Kinase inhibition assay (KinaseProfiler, 33P-ATP); type: biochemical, human
plc/prf/5 = test: Cell proliferation inhibition assay (MTT); type: cell-based; settings: Homo sapiens, 72 hours, read-out: Proliferation inhibitory activity IC50
Method: as §1

[2] = MIA PaCa-2, Miapaca-2, MTT, 72 hours
[3] = MDA-MB-231 subcutaneous tumor, nude mice, 20 mg/kg per day, oral
[4] = MDA-MB-231 subcutaneous tumor, nude mice, vs paclitaxel 10 mg/kg per week tail vein, dasatinib 40 mg/kg daily oral

Chain of ErbB2 (P04626 23-1255): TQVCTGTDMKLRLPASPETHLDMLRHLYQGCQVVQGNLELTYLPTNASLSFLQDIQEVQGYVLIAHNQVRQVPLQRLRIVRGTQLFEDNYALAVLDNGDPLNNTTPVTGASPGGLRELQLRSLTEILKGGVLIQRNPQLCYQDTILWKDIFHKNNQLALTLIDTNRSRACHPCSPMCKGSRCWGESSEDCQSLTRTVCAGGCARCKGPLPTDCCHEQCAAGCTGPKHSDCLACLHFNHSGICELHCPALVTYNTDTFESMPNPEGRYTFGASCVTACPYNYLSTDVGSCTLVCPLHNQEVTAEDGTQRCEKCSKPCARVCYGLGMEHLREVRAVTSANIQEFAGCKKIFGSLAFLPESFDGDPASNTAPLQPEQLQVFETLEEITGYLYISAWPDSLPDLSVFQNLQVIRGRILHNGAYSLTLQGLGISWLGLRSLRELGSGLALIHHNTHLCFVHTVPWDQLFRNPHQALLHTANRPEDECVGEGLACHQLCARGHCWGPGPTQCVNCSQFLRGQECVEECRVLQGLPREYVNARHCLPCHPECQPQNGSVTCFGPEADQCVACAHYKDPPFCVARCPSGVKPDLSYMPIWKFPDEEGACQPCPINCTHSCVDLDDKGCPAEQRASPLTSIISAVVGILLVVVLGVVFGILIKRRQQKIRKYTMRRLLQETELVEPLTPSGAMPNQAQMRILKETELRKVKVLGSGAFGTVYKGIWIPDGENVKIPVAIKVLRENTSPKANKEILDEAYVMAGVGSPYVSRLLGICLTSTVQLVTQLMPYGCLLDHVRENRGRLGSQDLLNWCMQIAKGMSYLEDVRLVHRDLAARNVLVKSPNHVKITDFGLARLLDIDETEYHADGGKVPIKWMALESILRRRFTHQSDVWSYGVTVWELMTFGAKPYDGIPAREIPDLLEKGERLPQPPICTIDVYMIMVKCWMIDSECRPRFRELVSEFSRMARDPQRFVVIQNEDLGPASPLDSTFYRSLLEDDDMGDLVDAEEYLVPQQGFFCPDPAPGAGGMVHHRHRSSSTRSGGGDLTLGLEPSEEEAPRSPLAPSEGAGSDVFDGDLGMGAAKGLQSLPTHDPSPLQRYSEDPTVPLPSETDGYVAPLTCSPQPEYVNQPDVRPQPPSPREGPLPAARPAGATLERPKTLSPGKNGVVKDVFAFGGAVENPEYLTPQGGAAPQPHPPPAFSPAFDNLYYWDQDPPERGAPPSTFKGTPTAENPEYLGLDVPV
Chain of Fer(h) (P16591 whole entry): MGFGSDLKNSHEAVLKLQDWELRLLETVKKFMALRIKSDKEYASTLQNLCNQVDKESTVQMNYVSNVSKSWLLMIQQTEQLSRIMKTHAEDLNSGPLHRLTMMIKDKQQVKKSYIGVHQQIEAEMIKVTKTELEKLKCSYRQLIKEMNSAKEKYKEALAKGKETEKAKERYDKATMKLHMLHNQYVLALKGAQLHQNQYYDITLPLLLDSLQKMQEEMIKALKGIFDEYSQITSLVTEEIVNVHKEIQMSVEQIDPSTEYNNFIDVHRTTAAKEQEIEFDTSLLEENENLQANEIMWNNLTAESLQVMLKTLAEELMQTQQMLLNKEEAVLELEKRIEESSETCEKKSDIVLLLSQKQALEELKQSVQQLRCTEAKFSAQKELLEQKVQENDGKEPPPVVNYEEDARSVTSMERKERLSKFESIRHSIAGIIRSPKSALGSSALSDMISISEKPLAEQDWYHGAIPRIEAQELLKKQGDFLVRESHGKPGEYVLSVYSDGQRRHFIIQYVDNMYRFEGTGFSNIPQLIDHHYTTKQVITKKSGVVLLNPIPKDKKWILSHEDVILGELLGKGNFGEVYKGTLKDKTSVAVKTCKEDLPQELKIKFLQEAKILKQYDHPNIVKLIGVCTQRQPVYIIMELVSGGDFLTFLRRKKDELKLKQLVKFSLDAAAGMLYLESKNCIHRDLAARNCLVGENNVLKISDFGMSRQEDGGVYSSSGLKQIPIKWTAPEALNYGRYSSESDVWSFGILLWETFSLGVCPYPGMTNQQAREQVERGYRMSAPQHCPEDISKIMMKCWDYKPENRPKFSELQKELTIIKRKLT
Chain of c-Src(1-530) (P12931 whole entry, looked up): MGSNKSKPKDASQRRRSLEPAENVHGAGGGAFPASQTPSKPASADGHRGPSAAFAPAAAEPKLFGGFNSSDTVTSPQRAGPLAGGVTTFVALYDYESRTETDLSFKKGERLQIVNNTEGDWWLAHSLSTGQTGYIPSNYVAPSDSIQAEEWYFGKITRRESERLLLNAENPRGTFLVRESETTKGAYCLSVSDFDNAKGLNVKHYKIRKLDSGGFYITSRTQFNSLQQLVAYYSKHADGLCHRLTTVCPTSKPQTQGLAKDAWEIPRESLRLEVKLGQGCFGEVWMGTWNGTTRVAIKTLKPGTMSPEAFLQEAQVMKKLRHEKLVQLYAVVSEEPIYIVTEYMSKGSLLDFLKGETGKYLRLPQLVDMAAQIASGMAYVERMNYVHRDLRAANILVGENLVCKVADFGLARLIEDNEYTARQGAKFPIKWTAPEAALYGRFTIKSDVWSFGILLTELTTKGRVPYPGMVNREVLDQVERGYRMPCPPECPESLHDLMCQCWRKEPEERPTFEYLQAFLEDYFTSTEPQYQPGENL
Chain of Yes (P07947 whole entry): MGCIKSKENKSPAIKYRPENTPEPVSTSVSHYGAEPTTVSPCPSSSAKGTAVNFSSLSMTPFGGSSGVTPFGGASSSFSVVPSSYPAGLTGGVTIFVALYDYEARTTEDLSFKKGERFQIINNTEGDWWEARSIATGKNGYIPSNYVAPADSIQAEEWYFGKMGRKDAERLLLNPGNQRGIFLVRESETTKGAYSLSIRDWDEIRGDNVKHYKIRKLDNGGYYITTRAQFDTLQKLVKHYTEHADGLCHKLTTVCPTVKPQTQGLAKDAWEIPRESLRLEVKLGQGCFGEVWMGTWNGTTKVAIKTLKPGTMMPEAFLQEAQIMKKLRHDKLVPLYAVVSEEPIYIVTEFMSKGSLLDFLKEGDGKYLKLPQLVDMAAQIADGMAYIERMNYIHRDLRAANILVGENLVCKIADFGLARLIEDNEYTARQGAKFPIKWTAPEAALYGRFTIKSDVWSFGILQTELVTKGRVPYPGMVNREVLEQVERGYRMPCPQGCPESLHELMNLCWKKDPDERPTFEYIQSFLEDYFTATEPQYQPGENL
Chain of EphA2 (P29317 24-976): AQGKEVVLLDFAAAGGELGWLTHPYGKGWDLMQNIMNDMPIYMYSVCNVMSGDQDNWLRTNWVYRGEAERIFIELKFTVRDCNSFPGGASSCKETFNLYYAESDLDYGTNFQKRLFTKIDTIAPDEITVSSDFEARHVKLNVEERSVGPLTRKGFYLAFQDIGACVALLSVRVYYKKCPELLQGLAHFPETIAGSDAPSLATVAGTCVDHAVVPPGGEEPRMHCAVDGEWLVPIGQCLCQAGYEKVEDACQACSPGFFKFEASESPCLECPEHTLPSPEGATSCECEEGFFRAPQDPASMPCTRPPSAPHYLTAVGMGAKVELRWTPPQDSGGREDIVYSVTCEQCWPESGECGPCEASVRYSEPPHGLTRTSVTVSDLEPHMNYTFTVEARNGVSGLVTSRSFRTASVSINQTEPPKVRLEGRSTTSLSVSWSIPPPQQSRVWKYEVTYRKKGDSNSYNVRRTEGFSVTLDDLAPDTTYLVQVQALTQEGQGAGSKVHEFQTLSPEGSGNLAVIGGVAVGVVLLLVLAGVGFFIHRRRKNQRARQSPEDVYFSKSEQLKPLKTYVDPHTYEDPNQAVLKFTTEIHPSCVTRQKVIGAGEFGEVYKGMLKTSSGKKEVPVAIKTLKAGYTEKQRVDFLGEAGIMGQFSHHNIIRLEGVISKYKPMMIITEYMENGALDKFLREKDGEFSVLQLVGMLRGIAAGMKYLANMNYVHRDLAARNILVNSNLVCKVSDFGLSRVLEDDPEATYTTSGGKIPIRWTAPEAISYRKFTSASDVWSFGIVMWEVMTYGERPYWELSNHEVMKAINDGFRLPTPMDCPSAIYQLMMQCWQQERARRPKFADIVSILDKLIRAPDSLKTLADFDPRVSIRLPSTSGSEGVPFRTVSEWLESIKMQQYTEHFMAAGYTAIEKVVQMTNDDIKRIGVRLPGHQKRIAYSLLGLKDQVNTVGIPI
Chain of Lyn (P07948 whole entry): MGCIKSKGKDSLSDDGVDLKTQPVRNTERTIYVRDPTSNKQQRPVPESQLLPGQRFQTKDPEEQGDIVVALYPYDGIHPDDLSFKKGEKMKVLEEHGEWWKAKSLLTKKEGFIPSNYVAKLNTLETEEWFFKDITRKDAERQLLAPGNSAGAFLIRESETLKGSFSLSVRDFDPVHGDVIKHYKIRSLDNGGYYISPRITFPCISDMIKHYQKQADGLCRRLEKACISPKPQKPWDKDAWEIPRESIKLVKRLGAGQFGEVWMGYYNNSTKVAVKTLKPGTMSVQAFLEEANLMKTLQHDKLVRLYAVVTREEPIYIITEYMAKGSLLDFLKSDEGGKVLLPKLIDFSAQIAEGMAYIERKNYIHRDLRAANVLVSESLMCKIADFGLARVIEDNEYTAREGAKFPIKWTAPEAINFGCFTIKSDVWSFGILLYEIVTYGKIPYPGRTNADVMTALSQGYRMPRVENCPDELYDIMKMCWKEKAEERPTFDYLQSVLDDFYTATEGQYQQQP
Chain of Pim-1(h) (P11309 whole entry): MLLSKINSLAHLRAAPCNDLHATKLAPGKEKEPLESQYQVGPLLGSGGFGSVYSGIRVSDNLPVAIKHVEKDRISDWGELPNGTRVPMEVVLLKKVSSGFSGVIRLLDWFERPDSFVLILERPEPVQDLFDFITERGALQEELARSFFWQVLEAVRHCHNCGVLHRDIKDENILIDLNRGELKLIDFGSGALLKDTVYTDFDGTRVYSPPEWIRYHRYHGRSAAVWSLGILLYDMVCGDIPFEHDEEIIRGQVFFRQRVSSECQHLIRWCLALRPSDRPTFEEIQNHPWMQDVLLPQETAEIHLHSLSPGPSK

## CCn1nc(C#Cc2cc(C(=O)Nc3ccc(CN4CCN(C)CC4)c(C(F)(F)F)c3)ccc2C)c2c(N)ncnc21 [Compound 3]
c-Src(T341M)
  IC50: 30 nM
Yes; compound at 10 μM
  remaining activity at 10 µM: 0%
Yes
  IC50: < 1 nM
FGFR1; FGFR1, ATP at Km
  IC50: 3 nM
ErbB2; compound at 10 μM
  remaining activity at 10 µM: 3%
DDR1
  IC50: 9 nM
DDR2
  IC50: 128 nM
TrkA; compound at 10 μM
  remaining activity at 10 µM: -2%
IKKα; compound at 10 μM
  remaining activity at 10 µM: 2%
IKKα; IKKα, ATP at Km
  IC50: 353 nM
Axl; compound at 10 μM
  remaining activity at 10 µM: -4%
Axl; Axl, ATP at Km
  IC50: 578 nM
EGFR; compound at 10 μM
  remaining activity at 10 µM: 30%
EGFR; EGFR, ATP at Km
  IC50: 3520 nM
Lyn; compound at 10 μM
  remaining activity at 10 µM: 0%
ALK(h); compound at 10 μM
  remaining activity at 10 µM: 27%
ARK5(h); compound at 10 μM
  remaining activity at 10 µM: 105%
EphA8(h); compound at 10 μM
  remaining activity at 10 µM: -5%
Fer(h); compound at 10 μM
  remaining activity at 10 µM: 23%
Met(h); compound at 10 μM
  remaining activity at 10 µM: 24%
Pim-1(h); compound at 10 μM
  remaining activity at 10 µM: 46%
PKA(h); compound at 10 μM
  remaining activity at 10 µM: 17%
TBK1(h); compound at 10 μM
  remaining activity at 10 µM: 75%
MV4-11; MV4-11, 72 h
  IC50: 20 nM
Miapaca-2; MIA PaCa-2, 72 h
  IC50: 12.8 nM
CFPAC; 72 h
  IC50: 607 nM
A549; A549, 72 h
  IC50: 199 nM
HCT116; HCT-116, 72 h
  IC50: 178 nM
A375; A-375, 72 h
  IC50: 20.9 nM
[1]; mouse, in vivo
  inhibitory effect compared to positive control: better than the positive control (paclitaxel)
  tumor growth inhibition: significantly inhibited
c-Src(1-530)
  IC50: < 1 nM
EphA2; EphA2, ATP at Km
  IC50: 16 nM

## Cc1ccc(NC(=O)c2cccc(C(F)(F)F)c2)cc1C#Cc1nn(C2CCN(C)CC2)c2ncnc(N)c12 [Compound 31]
c-Src(T341M)
  IC50: 3730 nM
Yes; compound at 10 μM
  remaining activity at 10 µM: 0%
Yes
  IC50: < 1 nM
FGFR1; compound at 10 μM
  remaining activity at 10 µM: 0%
ErbB2; compound at 10 μM
  remaining activity at 10 µM: 2%
ErbB2
  IC50: 251 nM
DDR1
  IC50: 4 nM
DDR2
  IC50: 74 nM
TAK1; compound at 10 μM
  remaining activity at 10 µM: 2%
TAK1; TAK1, ATP at Km
  IC50: 203 nM
TrkA; compound at 10 μM
  remaining activity at 10 µM: 14%
IKKα; compound at 10 μM
  remaining activity at 10 µM: 14%
Axl; compound at 10 μM
  remaining activity at 10 µM: 15%
EGFR; compound at 10 μM
  remaining activity at 10 µM: 15%
Lyn; compound at 10 μM
  remaining activity at 10 µM: 0%
ALK(h); compound at 10 μM
  remaining activity at 10 µM: 33%
ARK5(h); compound at 10 μM
  remaining activity at 10 µM: 115%
EphA8(h); compound at 10 μM
  remaining activity at 10 µM: -4%
Fer(h); compound at 10 μM
  remaining activity at 10 µM: 92%
JAK3(h); compound at 10 μM
  remaining activity at 10 µM: 29%
MAPK1(h); compound at 10 μM
  The percentage of the remaining active protein: 66%
Met(h); compound at 10 μM
  remaining activity at 10 µM: 102%
Pim-1(h); compound at 10 μM
  remaining activity at 10 µM: 34%
PKA(h); compound at 10 μM
  remaining activity at 10 µM: 58%
TBK1(h); compound at 10 μM
  remaining activity at 10 µM: 83%
Miapaca-2; [2]
  IC50: 40.4 nM
CFPAC; CFPAC, MTT, 72 hours
  IC50: 472 nM
A549; A549, MTT, 72 hours
  IC50: 1420 nM
plc/prf/5
  IC50: 3970 nM
HCT116; HCT-116, HCT116, MTT, 72 hours
  IC50: 230 nM
A375; A-375, A375, MTT, 72 hours
  IC50: 26.6 nM
[1]; [3]
  tumor growth inhibition: significantly inhibit tumor growth
[1]; [4]
  inhibitory effect compared to positive control: superior inhibitory effect compared to positive control (paclitaxel and dasatinib)
[1]; nude mice, test dose range, daily oral
  toxicity / side effects (weight loss, rash, diarrhea) during administration: low toxicity
c-Src(1-530)
  IC50: 2 nM
  remaining activity at 10 µM: 0%
EphA2
  IC50: 18 nM

## Cc1ccc(NC(=O)c2ccc(C)c(C(F)(F)F)c2)cc1C#Cc1nn([C@H]2CC[C@H](O)CC2)c2ncnc(N)c12 [Compound 93]
c-Src(T341M); Src(T341M)(h), 10 μM, read-out: The percentage of the remaining active protein
  remaining activity at 10 µM: 20%
Yes; 10 μM
  remaining activity at 10 µM: 0%
Yes
  IC50: 1 nM
FGFR1; 10 μM
  remaining activity at 10 µM: 1%
ErbB2; 10 μM
  remaining activity at 10 µM: 4%
ErbB2
  IC50: 165 nM
DDR1; DDR1(h), 10 μM, read-out: The percentage of the remaining active protein
  remaining activity at 10 µM: -2%
DDR1
  IC50: 15 nM
DDR2; DDR2(h), 10 μM, read-out: The percentage of the remaining active protein
  remaining activity at 10 µM: 16%
DDR2
  IC50: 65 nM
TAK1; 10 μM
  remaining activity at 10 µM: 1%
TrkA; 10 μM
  remaining activity at 10 µM: 72%
IKKα; 10 μM
  remaining activity at 10 µM: 7%
Axl; 10 μM
  remaining activity at 10 µM: 56%
EGFR; 10 μM
  remaining activity at 10 µM: 11%
Lyn; 10 μM
  remaining activity at 10 µM: 0%
Lyn; Lyn, ATP at Km
  IC50: 4 nM
ALK(h); 10 μM
  remaining activity at 10 µM: 92%
ARK5(h); 10 μM
  remaining activity at 10 µM: 108%
EphA8(h); 10 μM
  remaining activity at 10 µM: 2%
Fer(h); 10 μM
  remaining activity at 10 µM: 67%
JAK3(h); 10 μM
  remaining activity at 10 µM: 7%
MAPK1(h); 10 μM
  The percentage of the remaining active protein: 87%
Met(h); 10 μM
  remaining activity at 10 µM: 133%
Pim-1(h); 10 μM
  remaining activity at 10 µM: 99%
PKA(h); 10 μM
  remaining activity at 10 µM: 60%
TBK1(h); 10 μM
  remaining activity at 10 µM: 104%
MV4-11; MV4-11, MTT, 72 hours
  IC50: 138 nM
Miapaca-2; [2]
  IC50: < 600 nM
A549; A549, MTT, 72 hours
  IC50: > 10000 nM
plc/prf/5
  IC50: ~10000 nM
A375; A-375, A375, MTT, 72 hours
  IC50: ~30 nM
[1]; [3]
  tumor growth inhibition: significantly inhibit tumor growth
[1]; [4]
  inhibitory effect compared to positive control: superior inhibitory effect compared to the positive control (paclitaxel)
c-Src(1-530)
  remaining activity at 10 µM: 0%
EphA2; read-out: The percentage of the remaining active protein
  remaining activity at 10 µM: -3%
